Assay results taken from the NIST ThermoML archive (doi:10.1016/j.fluid.2008.03.004).

Assay: xn = mol fraction of the nth substance listed
Settings: 101 kPa, Liquid; for speed of sound: Sing-around technique in a fixed-path interferometer

CCOC(C)(C)C [2-ethoxy-2-methylpropane] + Cc1ccc(C)cc1
Settings | mass density [kg/m3] | speed of sound [m/s]
288.15 K, x1 = 0.062 | 857.461 | 1332.5
288.15 K, x1 = 0.123 | 849.969 | 1315.3
288.15 K, x1 = 0.238 | 836.401 | 1283.6
288.15 K, x1 = 0.35 | 822.903 | 1252.6
288.15 K, x1 = 0.455 | 810.328 | 1223.7
288.15 K, x1 = 0.557 | 798.162 | 1195.8
288.15 K, x1 = 0.654 | 786.517 | 1169.2
288.15 K, x1 = 0.746 | 775.593 | 1144.4
288.15 K, x1 = 0.834 | 764.97 | 1120.8
288.15 K, x1 = 0.902 | 756.828 | 1102.5
288.15 K, x1 = 0.959 | 749.995 | 1087.2
288.15 K, x1 = 1 | 744.955 | 1076.4
290.65 K, x1 = 0.062 | 855.329 | 1321.8
290.65 K, x1 = 0.123 | 847.837 | 1304.4
290.65 K, x1 = 0.238 | 834.222 | 1272.7
290.65 K, x1 = 0.35 | 820.676 | 1241.5
290.65 K, x1 = 0.455 | 808.058 | 1212.6
290.65 K, x1 = 0.557 | 795.855 | 1184.6
290.65 K, x1 = 0.654 | 784.174 | 1158
290.65 K, x1 = 0.746 | 773.205 | 1133.1
290.65 K, x1 = 0.834 | 762.549 | 1109.4
290.65 K, x1 = 0.902 | 754.379 | 1091
290.65 K, x1 = 0.959 | 747.527 | 1076
290.65 K, x1 = 1 | 742.482 | 1065.1
293.15 K, x1 = 0.062 | 853.16 | 1311
293.15 K, x1 = 0.123 | 845.64 | 1293.7
293.15 K, x1 = 0.238 | 831.974 | 1261.7
293.15 K, x1 = 0.35 | 818.389 | 1230.6
293.15 K, x1 = 0.455 | 805.723 | 1201.5
293.15 K, x1 = 0.557 | 793.481 | 1173.4
293.15 K, x1 = 0.654 | 781.767 | 1146.8
293.15 K, x1 = 0.746 | 770.753 | 1121.7
293.15 K, x1 = 0.834 | 760.076 | 1098.1
293.15 K, x1 = 0.902 | 751.872 | 1079.6
293.15 K, x1 = 0.959 | 745.006 | 1064.5
293.15 K, x1 = 1 | 739.947 | 1053.7
295.65 K, x1 = 0.062 | 850.963 | 1300.3
295.65 K, x1 = 0.123 | 843.426 | 1282.9
295.65 K, x1 = 0.238 | 829.705 | 1250.9
295.65 K, x1 = 0.35 | 816.087 | 1219.6
295.65 K, x1 = 0.455 | 803.381 | 1190.5
295.65 K, x1 = 0.557 | 791.102 | 1162.2
295.65 K, x1 = 0.654 | 779.339 | 1135.5
295.65 K, x1 = 0.746 | 768.276 | 1110.5
295.65 K, x1 = 0.834 | 757.573 | 1086.7
295.65 K, x1 = 0.902 | 749.342 | 1068.2
295.65 K, x1 = 0.959 | 742.457 | 1053.1
295.65 K, x1 = 1 | 737.374 | 1042.2
298.15 K, x1 = 0.062 | 848.771 | 1289.8
298.15 K, x1 = 0.123 | 841.223 | 1272.5
298.15 K, x1 = 0.238 | 827.443 | 1240.2
298.15 K, x1 = 0.35 | 813.789 | 1208.9
298.15 K, x1 = 0.455 | 801.037 | 1179.6
298.15 K, x1 = 0.557 | 788.722 | 1151.4
298.15 K, x1 = 0.654 | 776.911 | 1124.5
298.15 K, x1 = 0.746 | 765.812 | 1099.4
298.15 K, x1 = 0.834 | 755.077 | 1075.5
298.15 K, x1 = 0.902 | 746.808 | 1057
298.15 K, x1 = 0.959 | 739.904 | 1041.9
298.15 K, x1 = 1 | 734.806 | 1031
300.65 K, x1 = 0.062 | 846.559 | 1279.4
300.65 K, x1 = 0.123 | 839.002 | 1262.1
300.65 K, x1 = 0.238 | 825.16 | 1229.7
300.65 K, x1 = 0.35 | 811.468 | 1198.2
300.65 K, x1 = 0.455 | 798.683 | 1168.9
300.65 K, x1 = 0.557 | 786.313 | 1140.5
300.65 K, x1 = 0.654 | 774.466 | 1113.6
300.65 K, x1 = 0.746 | 763.325 | 1088.4
300.65 K, x1 = 0.834 | 752.561 | 1064.5
300.65 K, x1 = 0.902 | 744.252 | 1045.9
300.65 K, x1 = 0.959 | 737.326 | 1030.6
300.65 K, x1 = 1 | 732.225 | 1019.8
303.15 K, x1 = 0.062 | 844.378 | 1269.2
303.15 K, x1 = 0.123 | 836.793 | 1251.8
303.15 K, x1 = 0.238 | 822.9 | 1219.2
303.15 K, x1 = 0.35 | 809.173 | 1187.7
303.15 K, x1 = 0.455 | 796.342 | 1158.2
303.15 K, x1 = 0.557 | 783.933 | 1129.8
303.15 K, x1 = 0.654 | 772.039 | 1102.8
303.15 K, x1 = 0.746 | 760.846 | 1077.5
303.15 K, x1 = 0.834 | 750.063 | 1053.5
303.15 K, x1 = 0.902 | 741.716 | 1034.8
303.15 K, x1 = 0.959 | 734.772 | 1019.6
303.15 K, x1 = 1 | 729.647 | 1008.6
305.65 K, x1 = 0.062 | – | 1258.9
305.65 K, x1 = 0.123 | – | 1241.4
305.65 K, x1 = 0.238 | – | 1208.8
305.65 K, x1 = 0.35 | – | 1177.1
305.65 K, x1 = 0.455 | – | 1147.5
305.65 K, x1 = 0.557 | – | 1119
305.65 K, x1 = 0.654 | – | 1091.9
305.65 K, x1 = 0.746 | – | 1066.6
305.65 K, x1 = 0.834 | – | 1042.5
305.65 K, x1 = 0.902 | – | 1023.8
305.65 K, x1 = 0.959 | – | 1008.5
305.65 K, x1 = 1 | – | 997.52
